From patent US20250270222A1, “AP2 ASSOCIATED KINASE 1 INHIBITORS AND USES THEREOF” (Satellos Bioscience Inc., priority 2023, published 2025)

The compounds below were run against AAK1 (amino acids T27-A365) (Homo sapiens (Human), UniProt Q2M2I8) (assay: AAK1 pSENs assay). Conditions: ratio of AAK1 pSENs activity to GAK pSENs activity.
Type: biochemical
Procedure: The recombinant proteins were independently expressed in Esherichia coli BL21(DE3) cells cultured in Luria-Bertani (LB) medium until OD600 reached 0.6-0.8, then cooled to 15° C., and supplemented with 0.5 mM isopropyl 1-thio-D-galactopyranoside (IPTG) induce protein expression 16 h. Cells were harvested and resuspended in lysis buffer (50 mM HEPES pH 7.5, 500 mM NaCl, 5 mM imidazole, 5% glycerol, 0.5 mM Tris (2-carboxyethyl) phosphine (TCEP), cOmplete Protease Inhibitor Tablet (Roche)) and lysed by microfluidics high pressure homogenizer (UH-06, Union-Biotech). Proteins were purified using Ni-Affinity chromatography (His FF column, Bestchrom) and eluted stepwise in binding buffer with 20-300 mM imidazole. Removal of the hexahistidine tag was performed at 4° C. overnight using recombinant TEV protease and reacted with BirA to obtain the corresponding biotinylated-AAK1. BIKE or GAK proteins. Further separated in the reverse Strep column (Strep-Tactin® XT, IBA). The Biotin elution sample was collected containing untagged biotinylated protein was then purified by Ion-exchange chromatography (Mono Q 10/100 GL, Cytiva) and Size-exclusion chromatography (HiLoad 16/600 Superdex 200 pg, Cytiva). The pure protein was stored in a storage buffer 50 mM HEPES (pH 7.5), 300 mM NaCl, 5% glycerol at −80° C. Protein were characterized by SDS-PAGE. LC-MS and aSEC.
This example describes one illustrative method for determining the IC50 of the compounds of the present invention against AAK1 (amino acids T27-A365). AAK1 protein was dissolved at 20 nM in 1× enzyme solution (50 mM HEPES pH7.5, 10 mM MgCl2, 1 mM DTT, 1% glycerol, 0.5 mM EGTA, 0.01% Briji35, 0.02% BSA) and 12.5 ul was incubated with 250 nl DMSO or 250 nl compound in DMSO at 25° C. for 15 min. The reaction was started by addition of 12.5 ul of 30 uM AQT0759 (Assayquant, CSKS-AQT0759B) and 70 uM ATP which were diluted in 1× substrate dilution buffer (50 mM HEPES pH7.5, 10 mM MgCl2, 1 mM DTT, 1% glycerol, 0.5 mM EGTA, 0.01% Briji35).

AAK1 (amino acids T27-A365), sequence (Q2M2I8 27-365): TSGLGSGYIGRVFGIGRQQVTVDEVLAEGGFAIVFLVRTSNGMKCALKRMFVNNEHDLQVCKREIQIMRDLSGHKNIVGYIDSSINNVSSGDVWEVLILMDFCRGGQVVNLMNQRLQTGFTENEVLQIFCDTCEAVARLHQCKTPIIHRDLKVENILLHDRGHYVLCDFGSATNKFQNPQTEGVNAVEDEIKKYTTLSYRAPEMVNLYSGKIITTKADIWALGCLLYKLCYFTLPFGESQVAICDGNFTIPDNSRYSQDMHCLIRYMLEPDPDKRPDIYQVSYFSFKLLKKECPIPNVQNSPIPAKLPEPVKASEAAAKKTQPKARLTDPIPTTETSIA

Row | SMILES | AAK1:GAK pSENs Selectivity
1 | Clc1cnn2ccc(N3CCNCC3)nc12 [Compound I-104, 3-chloro-5-piperazin-1-yl-pyrazolo[1,5-a]pyrimidine] | E (E: >1.00)
2 | CC(C)(C)OC(=O)NCCNc1nc2c(-c3cccnc3OC3CC3)cnn2cc1F [Compound I-124, tert-butyl N-[2-[[3-[2-(cyclopropoxy)-3-pyridyl]-6-fluoro-pyrazolo[1,5-a]pyrimidin-5-yl]amino]ethyl]carbamate] | C (C: 0.076-0.15)
3 | O=C1C[C@H](OC(=O)N2CCN(c3ccn4ncc(-c5cccnc5NC5CC5)c4n3)CC2)CN1 [Compound I-45, [(3S)-5-Oxopyrrolidin-3-yl]4-[3-[2-(cyclopropylamino)-3-pyridyl]pyrazolo[1,5-a]pyrimidin-5-yl]piperazine-1-carboxylate] | E (E: >1.00)
4 | Brc1cnn2ccc(N3CCNCC3)nc12 [Compound I-103, 3-bromo-5-piperazin-1-yl-pyrazolo[1,5-a]pyrimidine] | E (E: >1.00)
5 | COc1ncccc1-c1cnn2ccc(N3CCN(C(=O)OC4CCNC4)CC3)nc12 (stereo not shown) [Compound I-5, Pyrrolidin-3-yl4-[3-(2-methoxy-3-pyridyl)pyrazolo[1,5-a]pyrimidin-5-yl]piperazine-1-carboxylate] | B (B: 0.016-0.075)
6 | c1cc2nc(N3CCNCC3)ccn2n1 [Compound I-105, 5-piperazin-1-ylpyrazolo[1,5-a]pyrimidine] | E (E: >1.00)
7 | CC(C)(C)OC(=O)N1CCN(c2ccn3ncc(-c4cccnc4O)c3n2)CC1 [Compound I-102, tert-butyl 4-[3-(2-hydroxy-3-pyridyl)pyrazolo[1,5-a]pyrimidin-5-yl]piperazine-1-carboxylate] | A (A: ≤0.015)
8 | C#CC1(OC(=O)N2CCN(c3ccn4ncc(-c5cccnc5OC)c4n3)CC2)CCNC1 (stereo not shown) [Compound I-9, (3-Ethynylpyrrolidin-3-yl) 4-[3-(2-methoxy-3-pyridyl)pyrazolo[1,5-a]pyrimidin-5-yl]piperazine-1-carboxylate] | B (B: 0.016-0.075)
9 | CN(CCNc1ccn2ncc(-c3cccnc3OC3CC3)c2n1)C(=O)O[C@H]1CO[C@H]2OCC[C@H]21 [Compound I-71, (3R,3aS,6aR)-hexahydrofuro[2,3-b]furan-3-yl (2-((3-(2-cyclopropoxypyridin-3-yl)pyrazolo[1,5-a]pyrimidin-5-yl)amino)ethyl)(methyl)carbamate] | B (B: 0.016-0.075)
10 | CC(C)Oc1ncccc1-c1cnn2ccc(N3CCN(C(=O)OC4(C)CCNC4)CC3)nc12 (stereo not shown) [Compound I-21-5, (3-Methylpyrrolidin-3-yl)-4-[3-(2-isopropoxy-3-pyridyl)pyrazolo[1,5-a]pyrimidin-5-yl]piperazine-1-carboxylate] | B (B: 0.016-0.075)
11 | CN1C[C@@H](OC(=O)N2CCN(c3ccn4nccc4n3)CC2)CC1=O [Compound I-97, [(3S)-1-methyl-5-oxo-pyrrolidin-3-yl]-4-pyrazolo[1,5-a]pyrimidin-5-ylpiperazine-1-carboxylate] | E (E: >1.00)
12 | CN(CCNc1ccn2ncc(-c3cccnc3OC3CC3)c2n1)C(=O)O[C@]1(C)CCNC1 [Compound I-61, (R)-3-methylpyrrolidin-3-yl (2-((3-(2-cyclopropoxypyridin-3-yl)pyrazolo[1,5-a]pyrimidin-5-yl)amino)ethyl)(methyl)carbamate] | B (B: 0.016-0.075)
13 | COc1ncccc1-c1cnn2ccc(N3CCN(C(=O)OC4(C)CCNC4)CC3)nc12 (stereo not shown) [Compound I-8, (3-Methylpyrrolidin-3-yl)-4-[3-(2-methoxy-3-pyridyl)pyrazolo[1,5-a]pyrimidin-5-yl]piperazine-1-carboxylate] | B (B: 0.016-0.075)
14 | CC(C)(C)OC(=O)N1CCN(c2ccn3ncc(Cl)c3n2)CC1 [Compound I-100, tert-butyl 4-(3-chloropyrazolo[1,5-a]pyrimidin-5-yl)piperazine-1-carboxylate] | D (D: 0.16-1.00)
15 | Oc1ncccc1-c1cnn2ccc(N3CCNCC3)nc12 [Compound I-106, 3-(5-piperazin-1-ylpyrazolo[1,5-a]pyrimidin-3-yl)pyridin-2-ol] | C (C: 0.076-0.15)
16 | COc1ncccc1-c1cnn2ccc(NCCN(C)C(=O)O[C@H]3CO[C@H]4OCC[C@H]43)nc12 [Compound I-70, (3R,3aS,6aR)-hexahydrofuro[2,3-b]furan-3-yl (2-((3-(2-methoxypyridin-3-yl)pyrazolo[1,5-a]pyrimidin-5-yl)amino)ethyl)(methyl)carbamate] | B (B: 0.016-0.075)
17 | CC(C)(C)OC(=O)N1CCC(N2C[C@H](OC(=O)N3CCN(c4ccn5ncc(-c6cccnc6OC6CC6)c5n4)CC3)CC2=O)CC1 [Compound I-31, (R)-1-(1-(tert-Butoxycarbonyl)piperidin-4-yl)-5-oxopyrrolidin-3-yl 4-(3-(2-cyclopropoxypyridin-3-yl)pyrazolo[1,5-a]pyrimidin-5-yl)piperazine-1-carboxylate] | D (D: 0.16-1.00)
18 | CC(C)(C)OC(=O)NCCNc1ccc2ncc(-c3cccnc3OC3CC3)n2n1 [Compound I-129, tert-butyl N-[2-[[3-[2-(cyclopropoxy)-3-pyridyl]imidazo[1,2-b]pyridazin-6-yl]amino]ethyl]carbamate] | C (C: 0.076-0.15)
19 | CC1(OC(=O)N2CCN(c3ccn4ncc(-c5ccc(C(N)=O)cc5)c4n3)CC2)COC1 [Compound I-3, (3-methyloxetan-3-yl)-4-[3-(4-carbamoylphenyl)pyrazolo[1,5-a]pyrimidin-5-yl]piperazine-1-carboxylate] | B (B: 0.016-0.075)

The next lines start with the values.

Row | AAK1:GAK pSENs Selectivity | SMILES
20 | B (B: 0.016-0.075) | C#CC1(OC(=O)N2CCN(c3ccn4ncc(-c5cccnc5OC5CC5)c4n3)CC2)CCNC1 (stereo not shown) [Compound I-16-7, 3-ethynylpyrrolidin-3-yl-4-(3-(2-cyclopropoxypyridin-3-yl)pyrazolo[1,5-a]pyrimidin-5-yl)piperazine-1-carboxylate]
21 | A (A: ≤0.015) | C[C@@]1(OC(=O)N2CCN(c3ccn4ncc(-c5cccnc5OC5CC5)c4n3)CC2)CCN(CC(N)=O)C1 [Compound I-51, (R)-1-(2-amino-2-oxoethyl)-3-(methylpyrrolidin-3-yl)-4-(3-(2-cyclopropoxypyridin-3-yl)pyrazolo[1,5-a]pyrimidin-5-yl)piperazine-1-carboxylate]
22 | A (A: ≤0.015) | COc1cnc(OC2CC2)c(-c2cnn3ccc(N4CCN(C(=O)O[C@H]5CC(=O)N(C)C5)CC4)nc23)c1 [Compound I-87]
23 | 0.0083 | COc1ncccc1-c1cnn2ccc(N3CCN(C(=O)OC4(C)COC4)CC3)nc12 [RC-1, (3-methyloxetan-3-yl)-4-[3-(2-methoxy-3-pyridyl)pyrazolo[1,5-a]pyrimidin-5-yl]piperazine-1-carboxylate, reference compound]
24 | B (B: 0.016-0.075) | CN1C[C@@H](OC(=O)N2CCN(c3ccn4ncc(-c5cc(OC(F)(F)F)cnc5OC5CC5)c4n3)CC2)CC1=O [Compound I-88]
25 | B (B: 0.016-0.075) | CC1(OC(=O)N2CCN(c3ccn4ncc(-c5cccnc5OC5CC5)c4n3)CC2)CCNC1 (stereo not shown) [Compound I-13-5, (3-Methylpyrrolidin-3-yl) 4-[3-[2-(cyclopropoxy)-3-pyridyl]pyrazolo [1,5-a]pyrimidin-5-yl]piperazine-1-carboxylate]
26 | B (B: 0.016-0.075) | C#C[C@]1(OC(=O)N2CCN(c3ccn4ncc(-c5cccnc5OC5CC5)c4n3)CC2)CCNC1 [Compound I-15, [(3R)-3-Ethynylpyrrolidin-3-yl]-4-[3-[2-(cyclopropoxy)-3-pyridyl]pyrazolo[1,5-a]pyrimidin-5-yl]piperazine-1-carboxylate]
27 | C (C: 0.076-0.15) | CN1C[C@@H](OC(=O)N2CCN(c3ccn4ncc(-c5cccnc5O)c4n3)CC2)CC1=O [Compound I-98, [(3S)-1-methyl-5-oxo-pyrrolidin-3-yl]-4-[3-(2-hydroxy-3-pyridyl)pyrazolo[1,5-a]pyrimidin-5-yl]piperazine-1-carboxylate]
28 | A (A: ≤0.015) | C[C@@]1(OC(=O)N2CCN(c3ccn4ncc(-c5cccnc5OC5CC5)c4n3)CC2)CCNC1 [Compound I-14, [(3R)-3-Methylpyrrolidin-3-yl]-4-[3-[2-(cyclopropoxy)-3-pyridyl]pyrazolo[1,5-a]pyrimidin-5-yl]piperazine-1-carboxylate]
